Reference: ChEMBL document CHEMBL1131074, “Conformational analysis of ketolide, conformations of RU 004 in solution and bound to bacterial ribosomes” (J Med Chem, 1998)

Columns and labels:
Assay type in all cases: functional, organism-based
Escherichia coli [1] = assay: Pka1 value was evaluated in Escherichia coli MRE600 strain 70S ribosome (Observation 1)
Escherichia coli [2] = assay: Pka1 value was evaluated in Escherichia coli MRE600 strain 70S ribosome (Observation 2)
Escherichia coli [3] = assay: Pka2 value was evaluated in Escherichia coli MRE600 strain 70S ribosome (Observation 1)
Escherichia coli [4] = assay: Pka2 value was evaluated in Escherichia coli MRE600 strain 70S ribosome (Observation 2)

**Q.** For `CC[C@H]1OC(=O)C(C)C(=O)[C@H](C)[C@@H](O[C@@H]2O[C@H](C)C[C@H](N(C)C)[C@H]2O)[C@@](C)(OC)C[C@@H](C)C(=O)[C@H](C)[C@H]2N(NCCCc3ccnc4ccccc34)C(=O)O[C@]12C` (some centres undefined), which pKa1 (Escherichia coli [1]) is on record?
**A.** 5

**Q.** And the pKa1 (Escherichia coli [2])?
**A.** 3

**Q.** And the pKa2 (Escherichia coli [3])?
**A.** 8

**Q.** And the pKa2 (Escherichia coli [4])?
**A.** 6
